From paper PMC9311865, “Covalent Allosteric Inhibitors of Akt Generated Using a Click Fragment Approach” (Chemmedchem, 2022)
Entries after “also recorded” stand apart in the source; their conditions may differ. Where two headings read alike, the source gives them in different places.

What was measured:
[1] = tested on: MCF-7 cells; assay: CellTiter-Glo Luminescent Cell Viability Assay, MCF-7; format: cell-based; conditions: Homo sapiens
[2] = tested on: BT-474 cells; assay: CellTiter-Glo Luminescent Cell Viability Assay, BT-474; format: cell-based; conditions: Homo sapiens
[3] = tested on: KU-19-19 cells; assay: CellTiter-Glo Luminescent Cell Viability Assay, KU-19-19; format: cell-based; conditions: Homo sapiens, bladder cancer cell line, Akt1 E17K/E49K, mean ± SD, n=3
Procedure: The potential in vitro antiproliferative activity of the synthesised target compounds was investigated against a number of cancer cell lines by the CellTiter‐Glo® Luminescent Cell Viability Assay (from Promega Corporation, USA, catalogue number: G7570). The half‐maximal effective concentrations (EC50) of these compounds were determined against the AN3‐CA, BT‐474, KU‐19‐19, MCF‐7, T‐47D and ZR‐75‐1 cell lines originating from various tissues, i. e., breast, endometrium and bladder (Table S1). […]
The CellTiter-Glo® Luminescent Cell Viability Assay from Promega was used for the cellular assays, performed as explained by Weisner et al.7,8 Information on the cancer cell lines are given in Table S1, the control compounds used in Figure S3 and the results in Table S2.
Table S1. The cell lines used for the cellular assays, including what cancer type they are predominantly found in, and where the cell lines were acquired form.
Cell line Cancer type Acquired from AN3CA Endometrium ATCC (provided by Prof. Jan G. Hengstler at Leibniz-Institut für Arbeitsforschung Dortmund)
KU-19-19 Bladder Deutsche Sammlung von Mikroorganismen und Zellkulturen […]
BT-474 CLS Cell Lines Service (provided by Prof. Jan G. Hengstler at […] Leibniz-Institut für Arbeitsforschung Dortmund)

[4] = molecular target: T1, Akt1 (Homo sapiens, UniProt P31749); assay: HTRF KinEASE assay, IC50 against Akt1
Excerpt: (§1) The homogeneous time‐resolved fluorescence (HTRF®) KinEASE™ assay by Cisbio was used to determine the half‐maximal inhibitory concentration (IC50) values of the synthesised compounds against Akt1, Akt2 and Akt3 (Table 1).[26]
(§2) The HTRF® KinEASE™ assay (Cisbio) was used to determine the IC 50 values of the synthesised
(§3) al. (Akt2 and Akt3).1,5 The three wild-type Akt isoforms used were acquired from ProQinase.

[5] = tested on: ZR-75-1 cells; assay: CellTiter-Glo Luminescent Cell Viability Assay, ZR-75-1; format: cell-based; conditions: Homo sapiens
[6] = molecular target: T2, Akt2 (Homo sapiens, UniProt P31751); assay: HTRF KinEASE assay, IC50 against Akt2; format: biochemical; conditions: wild-type Akt2; mean ± SD, n=3
T2 construct: purchased ProQinase
Excerpt: as §1, §2, §3

[7] = tested on: AN3CA cells; assay: CellTiter-Glo Luminescent Cell Viability Assay, AN3CA; format: cell-based; conditions: Homo sapiens, AN3-CA, read-out: EC50 AN3CA
[8] = molecular target: T3, wild-type Akt1 (Homo sapiens, UniProt P31749); assay: LC-MS identification of covalent binders after co-incubation with Akt1; format: binding; conditions: co-incubation with Akt1, Figure S1
T3 construct: made in house
Excerpt: 2. Evaluation results … 4
4. Molecular Modelling … 57
indicated covalent binding.

[9] = tested on: T47D cells; assay: CellTiter-Glo Luminescent Cell Viability Assay, T47D; format: cell-based; conditions: Homo sapiens, breast cancer cell line, mean ± SD, n=3
[10] = molecular target: Akt3 (Homo sapiens, UniProt Q9Y243); assay: HTRF KinEASE assay, IC50 against Akt3
Excerpt: as §1, §2, §3

[11] = molecular target: T1, Akt1; assay: Kinetic analysis with HTRF KinEASE (time-dependent IC50), kinetic parameters of inactivation; format: biochemical; parameters: purchased ProQinase; conditions: mean ± SD, n=3; for Ki: inhibition constant of inactivation
Excerpt: The kinetic parameters of inactivation, namely the inhibition constant (K I) and the rate constant of enzyme inactivation (k inact), are therefore preferentially used to describe irreversible inhibitors.[28] K I is defined as the concentration of inhibitor required for half of the maximum potential rate of covalent bond formation, while k inact is defined as the maximum potential rate of covalent bond formation.[29] The ratio of k inact over K I, k inact/K I, accounts for both the potency of the inhibitor (K I) and the maximum potential rate of covalent bond formation (k inact) and thus represents the second‐order rate constant describing the efficiency of covalent complex formation.[29] Using a protocol published by Krippendorff et al., K I and k inact can be directly estimated from time‐dependent IC50 determinations by kinetic analysis with HTRF® KinEASE™.[28]
Using a protocol published by Krippendorff et al., KI, kinact and kinact/KI could be directly
estimated from time-dependent IC50 determinations by kinetic analysis with HTRF® KinEASE™,

[12] = MCF7, breast cancer cell line, mean ± SD, n=3, read-out: EC50 MCF‐7
[13] = BT-474, breast cancer cell line, mean ± SD, n=3, read-out: EC50 BT‐474
[14] = IC50 Akt1, wild-type Akt1, mean ± SD, n=3
[15] = ZR-75-1, breast cancer cell line, mean ± SD, n=3, read-out: EC50 ZR‐75‐1
[16] = endometrium cancer cell line, mean ± SD, n=3
[17] = IC50, Akt1, repeated in Table 2 for comparison, mean ± SD, n=3

T2 sequence (P31751 whole entry): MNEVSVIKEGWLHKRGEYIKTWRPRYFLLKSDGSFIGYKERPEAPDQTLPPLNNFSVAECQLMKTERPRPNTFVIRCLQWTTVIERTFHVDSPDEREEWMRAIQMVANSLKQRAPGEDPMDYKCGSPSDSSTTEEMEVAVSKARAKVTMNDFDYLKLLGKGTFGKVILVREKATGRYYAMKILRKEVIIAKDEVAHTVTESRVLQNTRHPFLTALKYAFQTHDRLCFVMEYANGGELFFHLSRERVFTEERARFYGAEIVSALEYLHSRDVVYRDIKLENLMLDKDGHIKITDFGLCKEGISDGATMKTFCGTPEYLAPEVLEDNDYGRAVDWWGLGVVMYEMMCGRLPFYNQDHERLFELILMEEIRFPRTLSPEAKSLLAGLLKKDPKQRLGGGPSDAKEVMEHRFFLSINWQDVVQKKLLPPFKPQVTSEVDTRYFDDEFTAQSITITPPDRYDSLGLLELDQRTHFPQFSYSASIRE
T1 sequence (P31749 whole entry): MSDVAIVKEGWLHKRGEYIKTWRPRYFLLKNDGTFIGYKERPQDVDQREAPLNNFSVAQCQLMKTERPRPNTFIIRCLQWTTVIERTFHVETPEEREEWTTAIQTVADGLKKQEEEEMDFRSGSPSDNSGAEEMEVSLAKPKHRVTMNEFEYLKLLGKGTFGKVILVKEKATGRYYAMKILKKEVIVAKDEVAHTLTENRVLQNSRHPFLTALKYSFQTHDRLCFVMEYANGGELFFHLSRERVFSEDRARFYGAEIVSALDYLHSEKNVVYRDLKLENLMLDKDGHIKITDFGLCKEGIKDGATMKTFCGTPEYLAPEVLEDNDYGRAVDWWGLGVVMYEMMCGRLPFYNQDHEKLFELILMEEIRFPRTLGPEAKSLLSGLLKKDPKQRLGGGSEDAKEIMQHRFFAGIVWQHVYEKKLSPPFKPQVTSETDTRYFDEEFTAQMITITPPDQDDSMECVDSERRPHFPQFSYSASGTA
T3 sequence (P31749 whole entry): as above
Akt3, sequence (Q9Y243 whole entry): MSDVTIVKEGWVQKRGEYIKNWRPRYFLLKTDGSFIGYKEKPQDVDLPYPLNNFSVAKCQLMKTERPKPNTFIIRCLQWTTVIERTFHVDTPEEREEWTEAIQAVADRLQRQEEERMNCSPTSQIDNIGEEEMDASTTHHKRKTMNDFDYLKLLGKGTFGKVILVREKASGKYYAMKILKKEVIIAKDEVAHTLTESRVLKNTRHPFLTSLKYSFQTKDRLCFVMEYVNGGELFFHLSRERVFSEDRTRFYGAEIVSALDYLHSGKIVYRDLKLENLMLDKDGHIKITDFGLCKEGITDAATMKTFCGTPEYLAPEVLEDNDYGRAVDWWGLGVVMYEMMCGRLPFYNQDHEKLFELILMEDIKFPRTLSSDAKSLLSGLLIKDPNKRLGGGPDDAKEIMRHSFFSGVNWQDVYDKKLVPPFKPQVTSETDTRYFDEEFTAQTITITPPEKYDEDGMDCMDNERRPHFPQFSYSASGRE

SMILES | EC50 [1, 12] [µM] | EC50 [2, 13] [µM] | IC50 [4, 14] [µM] | IC50 [6] [µM] | EC50 [9] [µM] | IC50 [10] [µM] | melting point [°C] | EC50 [3] [µM] | EC50 [5, 15] [µM] | EC50 [7, 16] [µM] | covalent binding to Akt1 (mass increase by LC-MS) [8] | also measured
NC1(C(=O)N[C@@H](CCO)c2ccc(Cl)cc2)CCN(c2ncnc3[nH]ccc23)CC1 [Capivasertib, reference compound] | 2.65 ± 0.555 | 1.6 ± 0.45 |  |  |  |  |  | 3.06 ± 2.33 |  |  |  | 
C=CC(=O)Nc1ccc2[nH]c(=O)n(C3CCN(Cc4ccc(-c5nc6cc[nH]c(=O)c6cc5-c5ccccc5)cc4)CC3)c2c1 [Compound 2, borussertib, reference compound] |  |  |  |  |  |  |  | 7.82 ± 3.27 |  |  |  | EC50 ([1]; MCF7, read-out: EC50 MCF‐7): 0.277 ± 0.09 µM; EC50 ([2]; BT-474, read-out: EC50 BT‐474): 0.373 ± 0.054 µM
C=CC(=O)Nc1ccccc1-c1cn(C2CCN(Cc3ccc(-c4nc5ccccn5c4-c4ccccc4C)cc3)CC2)nn1 [Compound 6, N ‐{2‐[1‐(1‐{4‐[3‐(o‐Tolyl)imidazo[1,2‐a]pyridin‐2‐yl]benzyl}piperidin‐4‐yl)‐1H‐1,2,3‐triazol‐4‐yl]phenyl}acrylamide] | 18.2 ± 2.56 | > 30 | > 20 | > 20 | > 30 | > 20 | 128 to 130 | 22 ± 4.98 | 15.5 ± 1.86 | 14.7 ± 2.35 |  | 
C=CC(=O)Nc1cccc(-c2cn(C3CCN(Cc4ccc(-c5nc6ccccn6c5-c5ccccc5C)cc4)CC3)nn2)c1 [Compound 7, N ‐{3‐[1‐(1‐{4‐[3‐(o‐Tolyl)imidazo[1,2‐a]pyridin‐2‐yl]benzyl}piperidin‐4‐yl)‐1H‐1,2,3‐triazol‐4‐yl]phenyl}acrylamide] | 4.38 ± 1.59 | 9.91 ± 4.14 | > 20 | > 20 | 4.86 ± 0.627 | > 20 | 124 to 126 | 7.69 ± 0.664 | 4.19 ± 1.11 | 5.71 ± 0.706 |  | 
C=CC(=O)Nc1ccc(-c2cn(C3CCN(Cc4ccc(-c5nc6ccccn6c5-c5ccccc5C)cc4)CC3)nn2)cc1 [Compound 8, N ‐{4‐[1‐(1‐{4‐[3‐(o‐Tolyl)imidazo[1,2‐a]pyridin‐2‐yl]benzyl}piperidin‐4‐yl)‐1H‐1,2,3‐triazol‐4‐yl]phenyl}acrylamide] | 4.3 ± 1.18 | 7.39 ± 2.34 | > 20 | > 20 | 4.52 ± 1.59 | > 20 | 169 to 170 | 7.63 ± 0.636 | 5.32 ± 0.426 | 5.87 ± 0.403 |  | 
C=CC(=O)Nc1cccc(-c2cn(C3CCN(Cc4ccc(-c5nc6ccccn6c5-c5cccc(C)c5)cc4)CC3)nn2)c1 [Compound 9, N ‐{3‐[1‐(1‐{4‐[3‐(m‐Tolyl)imidazo[1,2‐a]pyridin‐2‐yl]benzyl}piperidin‐4‐yl)‐1H‐1,2,3‐triazol‐4‐yl]phenyl}acrylamide] | 3.61 ± 0.804 | 11.2 ± 4.73 | > 20 | > 20 | 4.59 ± 1.31 | > 20 | 130 to 132 | 9.45 ± 1.04 | 4.2 ± 0.817 | 5.13 ± 1.28 |  | IC50 Akt1 ([4]; wild-type Akt1, mean ± SD, n=3): inactive
C=CC(=O)Nc1ccc2[nH]c(=O)n(C3CCN(Cc4ccc(-c5nc6ccccn6c5-c5ccccc5)cc4)CC3)c2c1 [Compound 11, N ‐(2‐Oxo‐3‐{1‐[4‐(3‐phenylimidazo[1,2‐a]pyridin‐2‐yl)benzyl]piperidin‐4‐yl}‐2,3‐dihydro‐1H‐benzo[d]imidazol‐5‐yl)acrylamide] | 1.1 ± 0.689 | 0.971 ± 0.301 | 0.034 ± 0.02 | 2.56 ± 0.578 | 0.364 ± 0.087 | > 20 | 221 to 223 | 12.8 ± 1.61 | 0.081 ± 0.011 | 1.03 ± 0.21 | covalent binders | IC50 [4, 17]: 0.0341 ± 0.0204 µM; Ki [11]: 0.0272 ± 0.0026 µM; k inact [11]: 0.069 ± 0.004 min⁻¹; k inact/K I [11]: 43000 ± 6000 M⁻¹ s⁻¹
C=CC(=O)Nc1cc2c(cc1Cl)[nH]c(=O)n2C1CCN(Cc2ccc(-c3nc4ccccn4c3-c3ccccc3)cc2)CC1 [Compound 12, N ‐(6‐Chloro‐2‐oxo‐3‐{1‐[4‐(3‐phenylimidazo[1,2‐a]pyridin‐2‐yl)benzyl]piperidin‐4‐yl}‐2,3‐dihydro‐1H‐benzo[d]imidazol‐5‐yl)acrylamide] | 4.23 ± 2.4 | 3.76 ± 1.38 | 0.029 ± 0.005 | 5.59 ± 1.52 | 1.5 ± 0.903 | > 20 | 80 to 82 | 23.5 ± 6.7 | 0.227 ± 0.057 | 3.57 ± 1.22 | covalent binders | IC50 [4, 17]: 0.0286 ± 0.0053 µM; Ki [11]: 0.0247 ± 0.0018 µM; k inact [11]: 0.081 ± 0.008 min⁻¹; k inact/K I [11]: 55000 ± 9000 M⁻¹ s⁻¹
CC(C)NC[C@@H](C(=O)N1CCN(c2ncnc3c2[C@H](C)C[C@H]3O)CC1)c1ccc(Cl)cc1 [Ipatasertib, reference compound] |  |  |  |  | 0.447 ± 0.002 |  |  | 4.23 ± 3.39 |  |  |  | EC50 ([5]; ZR-75-1, read-out: EC50 ZR‐75‐1): 0.219 ± 0.083 µM; EC50 ([1]; MCF7, read-out: EC50 MCF‐7): 5.04 ± 1.83 µM; EC50 ([2]; BT-474, read-out: EC50 BT‐474): 2.37 ± 0.745 µM; EC50 [7]: 0.925 ± 0.457 µM

The next lines start with results.

EC50 [1, 12] [µM] | EC50 [2, 13] [µM] | IC50 [4, 14] [µM] | IC50 [6] [µM] | EC50 [9] [µM] | IC50 [10] [µM] | melting point [°C] | SMILES | EC50 [3] [µM] | EC50 [5, 15] [µM] | EC50 [7, 16] [µM] | covalent binding to Akt1 (mass increase by LC-MS) [8] | also measured
8.55 ± 1.25 | 15.4 ± 6.13 | 0.925 ± 0.277 | > 20 | 15.2 ± 3.25 | > 20 |  | C=CC(=O)Nc1ccccc1-c1cn(C2CCN(Cc3ccc(-c4nc5ccccn5c4-c4ccccc4)cc3)CC2)nn1 [Compound 4, N ‐[2‐(1‐{1‐[4‐(3‐Phenylimidazo[1,2‐a]pyridin‐2‐yl)benzyl]piperidin‐4‐yl}‐1H‐1,2,3‐triazol‐4‐yl)phenyl]acrylamide] | 29.4 ± 9.59 | 1.75 ± 0.428 | 12.3 ± 3.48 | partial covalent binders; also recorded: partial labelling | 
3.39 ± 0.348 | 6.99 ± 2.37 | 2.88 ± 1.73 | > 20 | 3.79 ± 1.94 | > 20 |  | C=CC(=O)Nc1ccc(-c2cn(C3CCN(Cc4ccc(-c5nc6ccccn6c5-c5ccccc5)cc4)CC3)nn2)cc1 [Compound 5, N ‐[4‐(1‐{1‐[4‐(3‐Phenylimidazo[1,2‐a]pyridin‐2‐yl)benzyl]piperidin‐4‐yl}‐1H‐1,2,3‐triazol‐4‐yl)phenyl]acrylamide] | 9.83 ± 1.6 | 3.54 ± 0.44 | 5.44 ± 1.56 | no indication of covalent binding | 
6.73 ± 3.48 | 22.8 ± 3 | 4.63 ± 0.244 | > 20 | 9.18 ± 4.72 | > 20 | 217 to 219 | C=CC(=O)Nc1cccc(-c2cn(C3CCN(Cc4ccc(-c5nc6ccc(C)cn6c5-c5ccccc5)cc4)CC3)nn2)c1 [Compound 10, N ‐[3‐(1‐{1‐[4‐(6‐Methyl‐3‐phenylimidazo[1,2‐a]pyridin‐2‐yl)benzyl]piperidin‐4‐yl}‐1H‐1,2,3‐triazol‐4‐yl)phenyl]acrylamide] | 17.3 ± 7.97 | 3.32 ± 3.11 | 5.61 ± 2.85 | partial covalent binders | 
0.329 ± 0.225 | 0.469 ± 0.162 | 0.007 ± 0.0018 |  | 0.088 ± 0.031 |  | 252 to 254 | C=CC(=O)Nc1cccc(-c2cn(C3CCN(Cc4ccc(-c5nc6cc[nH]c(=O)c6cc5-c5ccccc5)cc4)CC3)nn2)c1 [Compound 13, N ‐[3‐(1‐{1‐[4‐(5‐Oxo‐3‐phenyl‐5,6‐dihydro‐1,6‐naphthyridin‐2‐yl)benzyl]piperidin‐4‐yl}‐1H‐1,2,3‐triazol‐4‐yl)phenyl]acrylamide] | 5.65 ± 1.49 | 0.02 ± 0.007 | 0.425 ± 0.058 | covalent binders | IC50 [4, 17]: 0.007 ± 0.0018 µM; decrease in activity against Akt1 compared to control compound 2 ([4]; IC50 ratio to borussertib (2)): less than 10 fold; Ki [11]: 0.0105 ± 0.0008 µM; k inact [11]: 0.042 ± 0.012 min⁻¹; k inact/K I [11]: 66000 ± 15000 M⁻¹ s⁻¹
 | 1.68 ± 0.316 |  |  |  |  |  | NC1(c2ccc(-c3nc4ccn5c(=O)[nH]nc5c4cc3-c3ccccc3)cc2)CCC1 [MK‐2206, reference compound] | 5.53 ± 0.927 | 0.063 ± 0.021 |  |  | 
